d = 2'-deoxy (DNA); m = 2'-O-methyl

Data on 3 compounds can be found in patent US20030148970A1, “Methods for specifically inhibiting histone deacetylase-4” (priority 2001, published 2003).

In one data set the test system is HDAC-4 mRNA. Kind of data set: Northern blot of HDAC-4 mRNA in A549 cells. The format is cell-based, human. The conditions noted are these: escalating doses (50 nM or 100 nM), 24 hours. On the procedure:
Human cancer A549 cells were treated with escalating doses of AS1, AS2 or MM2 oligos for 24 hours. Total RNAs were harvested for Northern analysis.
Briefly, human A549 and/or T24 human bladder carcinoma cells were seeded in 10 cm tissue culture dishes one day prior to oligonucleotide treatment. The cell lines were obtained from the American Type Culture Collection (ATCC) (Manassas, Va.) and were grown under the recommended culture conditions. Before the addition of the oligonucleotides, cells were washed with PBS (phosphate buffered saline). Next, lipofectin transfection reagent (GIBCO BRL Mississauga, Ontario, Calif.), at a concentration of 6.25 μg/ml, was added to serum free OPTIMEM medium (GIBCO BRL, Rockville, Md.), which was then added to the cells. The oligonucleotides to be screened were then added directly to the cells (i.e., one oligonucleotide per plate of cells). Mismatched oligonucleotides were used as controls. The same concentration of oligonucleotide (e.g., 50 nM) was used per plate of cells for each oligonucleotide tested.
Cells were harvested, and total RNAs were analyzed by Northern blot analysis. Briefly, total RNA was extracted using RNeasy miniprep columns (QIAGEN). Ten to twenty μg of total RNA was run on a formaldehyde-containing 1% agarose gel with 0.5 M sodium phosphate (pH 7.0) as the buffer system. […]

The next data set relates to human HDAC-4 protein. Kind of data set: Western blot of HDAC-4 protein in A549 cells. The conditions noted are these: 50 nM, 48 hours. The format is cell-based. On the procedure:
Human cancer A549 cells were treated with AS1, AS2 or MM2 oligos for 48 hours. Whole cell lysates were analyzed by Western blotting using antibodies specific against human HDAC4.
OSDN treatment conditions were as previously described.
Cells were lysed in buffer containing 1% Triton X-100, 0.5% sodium deoxycholate, 5 mM EDTA, 25 mM Tris-HCl, pH 7.5, plus protease inhibitors. Total protein was quantified by the protein assay reagent from Bio-Rad (Hercules, Calif.). 100 ug of total protein was analyzed by SDS-PAGE. Next, total protein was transferred onto a PVDF membrane and probed with various HDAC-specific primary antibodies. Rabbit anti-HDAC-1 (H-51), anti-HDAC-2 (H-54) antibodies (Santa Cruz Biotechnologies, Santa Cruz, Calif.) were used at 1:500 dilution. Rabbit anti-HDAC-3 antibody (Sigma, St. Louis, Mo.) was used at a dilution of 1:1000. Anti-HDAC-4 antibody was prepared as previously described (Wang, S. H. et al., (1999) Mol. Cell. Biol. 19:7816-27), and was used at a dilution of 1:1000. Anti-HDAC-6 antibody was raised by immunizing rabbits with a GST fusion protein containing a fragment of HDAC-6 protein (amino acid #990 to #1216, GenBank Accession No. AAD29048). Rabbit antiserum was tested and found only to react specifically to the human HDAC-6 isoform. HDAC-6 antiserum was used at 1:500 dilution in Western blots to detect HDAC-6 in total cell lysates. […]
A general note: Immunoblotting shows a protein as a band on a membrane.

Another data set deals with Human A549 cells. Kind of data set: cDNA array analysis of gene transcription. It is filed as cell-based. The note with it: A549, 50 nM, two days. The text has this:
Fold change on transcriptions was compared to that of HDAC-4 mismatch oligo (MM2) treated cells;

The next data set concerns the target T1, human HDAC-3 (Homo sapiens, UniProt O15379).
T1 construct: made in house; host or cells: insect cells (baculovirus expression system)
Description: histone deacetylase enzyme assay, HDAC-3. It is filed as biochemical. The method, then: (§1) The other HDAC isotypes, HDAC-3 and HDAC-4, were purified directly on an anti-Flag affinity column.
(§2) For the deacetylase assay, 20,000 cpm of an [^3H]-metabolically-labeled acetylated histone was used as a substrate. Histones were incubated with cloned recombinant human HDAC enzymes at 37° C. […] All assay conditions were pre-determined to be certain that each reaction was linear. Reactions were stopped by adding acetic acid (0.04 M final concentration) and HCl (250 mM, final concentration). The mixture was extracted with ethyl acetate, and the released [3H]-acetic acid was quantified by liquid scintillation counting. For the inhibition studies, HDAC enzyme was preincubated with test compounds for 30 minutes at 4° C. prior to the start of the enzymatic assay. IC50 values for HDAC enzyme inhibitors were identified with dose response curves for each individual compound and, thereby, obtaining a value for the concentration of inhibitor that produced fifty percent of the maximal inhibition.

The next data set concerns the target T2, human HDAC-6 (Homo sapiens, UniProt Q9UBN7).
T2 construct: made in house; host or cells: insect cells (baculovirus expression system)
T2 sequence (Q9UBN7 1-1215): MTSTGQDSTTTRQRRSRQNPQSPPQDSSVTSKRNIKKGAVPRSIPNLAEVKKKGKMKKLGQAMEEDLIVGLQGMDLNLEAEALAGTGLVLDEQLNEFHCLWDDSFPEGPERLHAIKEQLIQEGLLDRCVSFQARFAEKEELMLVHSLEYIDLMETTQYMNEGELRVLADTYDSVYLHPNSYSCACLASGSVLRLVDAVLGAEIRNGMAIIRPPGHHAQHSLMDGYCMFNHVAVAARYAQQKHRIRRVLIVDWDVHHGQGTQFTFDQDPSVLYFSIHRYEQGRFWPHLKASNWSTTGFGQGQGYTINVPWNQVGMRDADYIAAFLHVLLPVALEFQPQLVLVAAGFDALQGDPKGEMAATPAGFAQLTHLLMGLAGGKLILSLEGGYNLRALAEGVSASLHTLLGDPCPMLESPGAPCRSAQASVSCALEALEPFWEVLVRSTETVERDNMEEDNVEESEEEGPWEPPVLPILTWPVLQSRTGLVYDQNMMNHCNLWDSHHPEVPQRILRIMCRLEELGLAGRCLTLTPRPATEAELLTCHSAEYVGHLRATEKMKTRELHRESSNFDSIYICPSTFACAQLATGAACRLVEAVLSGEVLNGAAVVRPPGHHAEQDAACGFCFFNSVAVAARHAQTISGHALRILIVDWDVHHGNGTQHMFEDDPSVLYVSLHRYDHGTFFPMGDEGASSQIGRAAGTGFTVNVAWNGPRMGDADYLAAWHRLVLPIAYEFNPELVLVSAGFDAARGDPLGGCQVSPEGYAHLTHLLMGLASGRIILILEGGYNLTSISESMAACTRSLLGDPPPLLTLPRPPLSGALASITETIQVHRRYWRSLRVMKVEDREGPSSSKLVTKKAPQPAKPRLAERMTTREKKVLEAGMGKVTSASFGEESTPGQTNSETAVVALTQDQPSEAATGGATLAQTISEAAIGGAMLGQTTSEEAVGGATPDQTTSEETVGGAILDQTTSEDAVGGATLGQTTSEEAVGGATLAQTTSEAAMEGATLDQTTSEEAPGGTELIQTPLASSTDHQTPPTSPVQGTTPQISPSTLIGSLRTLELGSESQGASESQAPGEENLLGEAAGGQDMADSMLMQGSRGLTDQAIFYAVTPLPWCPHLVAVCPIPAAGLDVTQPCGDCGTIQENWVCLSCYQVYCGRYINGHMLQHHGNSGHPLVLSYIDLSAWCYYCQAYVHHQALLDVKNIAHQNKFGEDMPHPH
Kind of data set: histone deacetylase enzyme assay, HDAC-6. The format is biochemical. The method, then: as §1, §2

The subject of data set [1] is acetylated histone H-4 in T24 human bladder cancer cells. Kind of data set: inhibition of HDAC activity in whole cells (acetylated histone H-4 Western). It is filed as cell-based. The note with it: 16 hours. On the procedure: T24 human bladder cancer cells (ATCC, Manassas, Va.) growing in culture were incubated with test compounds for 16 hours. Histones were extracted from the cells by standard procedures (see e.g. Yoshida et al., supra) after the culture period. Twenty μg total core histone protein was loaded onto SDS/PAGE and transferred to nitrocellulose membranes, which were then reacted with polyclonal antibody specific for acetylated histone H-4 (Upstate Biotech Inc., Lake Placid, […].). Horse Radish Peroxidase conjugated secondary antibody was used at a dilution of 1:5000 to detect primary antibody binding. The secondary antibody binding was visualized by use of the Enhanced chemiluminescence (ECL) detection kit (Amersham-Pharmacia Biotech., Inc., Piscataway, N.J.). After exposure to film, acetylated H-4 signal was quantitated by densitometry.

Data set [2] deals with human colon cancer HCT116 cells. Description: MTT assay of cell proliferation and cytotoxicity. The conditions noted are these: HCT-116, 48 hours. It is filed as cell-based. On the procedure: Four thousand five hundred (4,500) human colon cancer HCT116 cells (ATCC, Manassas, Va. were used in an MTT (3-[4,5-dimethylthiazol-2-yl]-2,5 diphenyl tetrazolium bromide) assay to quantitatively determine cell proliferation and cytotoxicity. Typically, HCT116 cells were plated into each well of the 96-well tissue culture plate and left overnight to attach to the plate. Compounds at various concentrations (1 uM, 5 uM and 25 uM, in DMSO) were added in triplicate into the culture media (final DMSO concentration 1%) and incubated for 48 hours. MTT solution (obtained from Sigma as powder) was added and incubated with the cells for 4 hours at 37° C. in incubator with 5% CO2. During the incubation, viable cells convert MTT to a water-insoluble formazan dye. Solubilizing buffer (50% N,N-dimethylformamide, 20% SDS, pH 4.7) was added to cells and incubate for overnight at 37C in incubator with 5% CO2. Solubilized dye was quantitated by colorimetric reading at […] using a reference of […].

For another data set, the target named is HDAC 2 (Homo sapiens, UniProt Q92769). Kind of data set: histone deacetylase enzyme assay, HDAC 2. The format is biochemical. The method, then:
as §2

Another data set deals with p21. Kind of data set: p21 induction by small molecules. The format is cell-based.
The target of another data set is T3, human HDAC-4 (Homo sapiens, UniProt P56524).
T3 construct: Flag; made in house; host or cells: human embryonic kidney 293 cells (calcium phosphate transfection)
T3 sequence (P56524 whole entry): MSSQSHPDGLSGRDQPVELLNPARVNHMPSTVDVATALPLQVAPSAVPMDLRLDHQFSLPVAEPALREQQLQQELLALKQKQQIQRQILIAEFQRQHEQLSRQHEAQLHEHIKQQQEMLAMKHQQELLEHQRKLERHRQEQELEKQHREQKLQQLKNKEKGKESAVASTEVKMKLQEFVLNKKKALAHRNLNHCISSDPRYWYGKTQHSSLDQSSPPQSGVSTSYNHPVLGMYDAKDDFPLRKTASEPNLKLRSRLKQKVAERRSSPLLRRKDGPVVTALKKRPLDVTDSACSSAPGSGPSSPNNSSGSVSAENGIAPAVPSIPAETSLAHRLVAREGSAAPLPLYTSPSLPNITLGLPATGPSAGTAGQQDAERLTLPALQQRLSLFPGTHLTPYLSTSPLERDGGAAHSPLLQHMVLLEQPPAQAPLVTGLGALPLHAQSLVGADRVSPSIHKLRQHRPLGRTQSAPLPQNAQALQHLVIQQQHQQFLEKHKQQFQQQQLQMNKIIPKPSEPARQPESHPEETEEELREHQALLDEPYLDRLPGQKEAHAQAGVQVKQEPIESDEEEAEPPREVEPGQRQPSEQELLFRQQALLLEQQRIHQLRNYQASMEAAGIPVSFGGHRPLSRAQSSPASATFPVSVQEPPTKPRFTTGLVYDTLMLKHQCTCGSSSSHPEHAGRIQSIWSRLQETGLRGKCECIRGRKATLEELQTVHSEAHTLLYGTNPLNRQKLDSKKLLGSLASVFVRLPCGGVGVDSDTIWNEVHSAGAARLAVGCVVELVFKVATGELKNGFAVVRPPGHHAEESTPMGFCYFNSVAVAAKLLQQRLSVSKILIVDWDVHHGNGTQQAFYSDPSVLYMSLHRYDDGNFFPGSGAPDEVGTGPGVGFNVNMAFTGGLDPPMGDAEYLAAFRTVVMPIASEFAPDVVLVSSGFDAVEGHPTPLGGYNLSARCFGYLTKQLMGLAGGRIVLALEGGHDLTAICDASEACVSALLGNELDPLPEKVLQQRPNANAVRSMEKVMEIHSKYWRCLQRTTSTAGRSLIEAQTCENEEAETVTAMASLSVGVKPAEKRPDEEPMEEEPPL
Description: histone deacetylase enzyme assay, HDAC-4. It is filed as biochemical. On the procedure:
Flag-tagged human HDAC-4 enzyme was produced in human embronic kidney 293 cells after transformation by the calcium phosphate precipitation method. Briefly, 293 cells were cultured in Dulbecco's Modified Eagle Medium (DMEM) containing 10% fetal bovine serum and antibiotics. Plasmid DNA encoding Flag-tagged human HDAC-4 was precipitated by ethanol and resuspend in sterile water. DNA-calcium precipitates, formed by mixing DNA, calcium choloride and 2×HEPES-buffered saline solution, were left on 293 cells for 12-16 hours. Cells were return to serum-contained DMEM medium and harvested at 48 hour post transfection for purification of Flag-tagged HDAC-4 enzyme.
as §1, §2

A further data set can be described thus: cell cycle arrest. The format is cell-based.

Chain of HDAC 2 (Q92769 whole entry): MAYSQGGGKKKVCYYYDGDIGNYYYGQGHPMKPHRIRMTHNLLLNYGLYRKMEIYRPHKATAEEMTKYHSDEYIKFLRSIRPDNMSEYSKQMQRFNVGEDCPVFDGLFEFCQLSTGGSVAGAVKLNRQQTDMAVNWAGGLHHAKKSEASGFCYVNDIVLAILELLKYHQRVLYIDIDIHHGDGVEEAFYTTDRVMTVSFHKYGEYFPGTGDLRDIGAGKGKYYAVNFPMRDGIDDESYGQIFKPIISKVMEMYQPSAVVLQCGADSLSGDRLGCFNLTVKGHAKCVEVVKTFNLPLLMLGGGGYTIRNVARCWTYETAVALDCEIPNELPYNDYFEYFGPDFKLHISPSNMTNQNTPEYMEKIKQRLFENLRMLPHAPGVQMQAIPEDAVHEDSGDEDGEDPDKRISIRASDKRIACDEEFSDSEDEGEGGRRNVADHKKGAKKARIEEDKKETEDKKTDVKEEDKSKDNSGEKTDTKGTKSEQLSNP
T1 sequence (O15379 whole entry): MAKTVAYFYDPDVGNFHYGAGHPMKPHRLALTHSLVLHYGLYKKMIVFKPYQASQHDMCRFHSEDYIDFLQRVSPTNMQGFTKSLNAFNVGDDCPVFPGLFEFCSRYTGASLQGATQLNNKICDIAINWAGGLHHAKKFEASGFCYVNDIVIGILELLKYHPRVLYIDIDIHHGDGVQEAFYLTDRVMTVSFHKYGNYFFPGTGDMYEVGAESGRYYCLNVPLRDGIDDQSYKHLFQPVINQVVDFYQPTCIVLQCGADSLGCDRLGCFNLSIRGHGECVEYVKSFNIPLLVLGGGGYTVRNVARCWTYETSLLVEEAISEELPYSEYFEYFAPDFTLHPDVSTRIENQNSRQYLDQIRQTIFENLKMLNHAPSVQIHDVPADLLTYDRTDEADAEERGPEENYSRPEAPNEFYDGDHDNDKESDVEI

For the compound “HDAC-4 AS1: 5′-GCTGCCTGCCGTGCCCACCC-3′, antisense to human HDAC4 5′-UTR, AB006626 (sugars from the 5' end m4 d12 m4, all phosphorothioate, methylation of C and T or U not given here)”, the “expression of HDAC-4 mRNA (HDAC4 expression at RNA level)” value with HDAC-4 mRNA is recorded as “can inbibit HDAC4 expression at RNA level in a dose-dependent manner”. In the data set with human HDAC-4 protein, the “expression of HDAC-4 protein” value is “can inbibit HDAC4 expression at protein level”. In the data set on Human A549 cells (vs HDAC-4 mismatch oligo (MM2)), the “fold change, CDK4” value was −3 fold; the “fold change, Egr-1” value turned out to be 3 fold; the “fold change, GADD45” value was determined as 3 fold; the “fold change, GADD153” value amounted to 6 fold. Besides, in the data set with Human A549 cells (vs HDAC-4 mismatch oligo (MM2)), the “fold change, IL-15” value stood at 4 fold; the “fold change, IRF” value amounted to 2 fold; the “fold change, Notch-4” value was −3 fold; the “fold change, PLK” value is listed as −4 fold. For the same compound, in the data set on Human A549 cells (vs HDAC-4 mismatch oligo (MM2)), the “fold change, basic FGF” value is reported as 2 fold; the “fold change, cyclin A2” value was −3 fold; the “fold change, cyclin B1” value is −3 fold; the “fold change, p21” value is 4 fold. Moreover, the “fold change, topo II α” value in the data set on Human A549 cells (vs HDAC-4 mismatch oligo (MM2)) is reported as −5 fold. For the same compound, in the data set on Human A549 cells (out of 588 genes), the “number of genes with altered expression” value is reported as 39 genes.
Consider `Nc1ccccc1NC(=O)CCCCCCC(=O)c1ccc(-c2ccccc2)nc1` [MG 385 9], for which the IC50 (commonly the concentration that inhibits the measured activity by half) against human HDAC-3 was 18 µM; against human HDAC-6, more than 50 µM; in data set [2], 5 µM; on HDAC 2 it was 8 µM; on human HDAC-4, 13 µM. Besides, in data set [1], the “effective concentration for histone H4 acetylation” value is 5 µM. In addition, the p21 induction in the data set on p21 was found to be 5 µM. Besides, the “cell cycle arrest EC” value in the data set “cell cycle arrest” was found to be 3 µM.
For the compound “HDAC4 AS2: 5′-TACAGTCCATGCAACCTCCA-3′, antisense to human HDAC4 3′-UTR, AB006626 (sugars from the 5' end m4 d12 m4, all phosphorothioate, methylation of C and T or U not given here)”, the “expression of HDAC-4 mRNA (HDAC4 expression at RNA level)” value in the data set on HDAC-4 mRNA is “can inbibit HDAC4 expression at RNA level in a dose-dependent manner”. The “expression of HDAC-4 protein” value with human HDAC-4 protein is reported as “can inbibit HDAC4 expression at protein level”.
